Measured values reported in patent US8404866B2, “Substituted heterocyclic mercaptosulfonamide metalloprotease inhibitors” (Florida State University Research Foundation, priority 2008, dated 2013).
Structures can show the parent of a compound that is named as a salt.

How the values were obtained:
Type in all cases: biochemical
[1] = biological target: T1, MMP-26 (EDM; human endometase) (Homo sapiens, UniProt Q9NRE1); assay: Enzyme kinetic assay, inhibition of MMP-26; details: read-out: Ki (value in parentheses), EDM MMP-26
T1 sequence (Q9NRE1 90-261): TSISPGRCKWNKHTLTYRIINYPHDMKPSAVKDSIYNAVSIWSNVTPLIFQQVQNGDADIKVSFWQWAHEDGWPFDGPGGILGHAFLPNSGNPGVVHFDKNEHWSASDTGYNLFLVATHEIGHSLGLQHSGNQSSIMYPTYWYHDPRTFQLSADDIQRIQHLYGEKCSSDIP
Excerpt: (§1) The following protocol was used to obtain the data found in the following table. Materials: The fluorescent peptide substrates for matrix metalloproteinases (MMPs) used were purchased from Bachem Chem. Co. The metal salts and Brij-35 were purchased from Fisher Scientific Inc. All other chemicals were purchased from Sigma-Aldrich Chem. Co. The sources and biochemical characterizations of multiple MMPs, including MMP-1/human fibroblast collagenase (HFC), MMP-2/human fibroblast gelatinase (HFG), MMP-8/human neutrophil collagenase (HNC), and MMP-9/human neutrophil gelatinase (HNG), MMP-7/human matrilysin (MLN), MMP-3/human fibroblast stromelysin-1 (HFS), human recombinant catalytic domain of membrane-type 1 matrix metalloproteinase (cdMT1-MMP), catalytic domain of MMP-12/metalloelastase (cdMET), and MMP-26/human endometase (EDM) were described previously (Sang, Q. X., Birkedal-Hansen, H., and Van Wart, H. E. Proteolytic and non-proteolytic activation of human neutrophil progelatinase B. Biochim. Biophys. Acta. 1995; 1251, 99-108; Sang, Q. A., Bodden, M. K., and Windsor, L. J. Activation of human progelatinase A by collagenase and matrilysin: activation of procollagenase by matrilysin. J. Protein. Chem. 1996; 15, 243-253; Li, H., Bauzon, D. E., Xu, X., Tschesche, H., Cao, J., and Sang, Q.-X. A. Immunological characterization of cell-surface and soluble forms of membrane type 1 matrix metalloproteinase in human breast cancer cells and in fibroblasts. Molec. Carcinog. 1998; 22, 84-94; Park, H. I., Ni, J., Gerkema, F. E., Liu, D., Belozerov, V. E., and Sang, Q.-X. A. Identification and characterization of human endometase (Matrix metalloproteinase-26) from endometrial tumor. J. Biol. Chem., 2000; 275, 20540-20544). The active concentrations of MMPs were determined by titration with GM6001, a tight-binding MMP inhibitor, as described previously (Park, H. I., Turk, B. E., Gerkema, F. E., Cantley, L. C., and Sang, Q.-X. A. Peptide substrate specificities and protein cleavage sites of human endometase/matrilysin-2/matrix metalloproteinase-26. J. Biol. Chem. 2002; 277, 35168-35175).
(§2) The active inhibitor concentrations were estimated by titrating the mercapto group with 5,5′-dithiobis(2-nitrobenzoic acid) (DTNB; Ellman's reagent) as described previously (Ellman, G. L. A colorimetric method for determining low concentrations of mercaptans. Arch. Biochem. Biophys. 1958; 74, 443-450; Ellman, G. L. Tissue sulfhydryl groups. Arch. Biochem. Biophys. 1959; 82, 70-77; Riddles, P. W., Blakeley, R. L., and Zerner, B. Ellman's reagent: 5,5′-dithiobis(2-nitrobenzoic acid)—a reexamination. Anal. Biochem. 1979; 94, 75-81). Briefly, the reaction of DTNB with the mercapto group produces 2-nitro-5-thiobenzoic acid (TNB). The concentration of TNB is then measured by monitoring the absorbance at 412 nm. Cysteine was used to generate the standard curve with a molar extinction coefficient of 14,000±500 M^−1 cm^−1, which is close to the value in the literature (Riddles, P. W., Blakeley, R. L., and Zerner, B. Ellman's reagent: 5,5′-dithiobis(2-nitrobenzoic acid)—a reexamination. Anal. Biochem. 1979; 94, 75-81).
(§3) The substrate Mca-PLGLDpaAR-NH2 was used to measure inhibition constants (Knight, C. G., Willenbrock. F., and Murphy, G. A novel coumarin-labelled peptide for sensitive continuous assays of the matrix metalloproteinases. FEBS Lett. 1992; 296, 263-266). Enzymatic assays were performed at 25° C. in 50 mM HEPES buffer at pH 7.5 in the presence of 10 mM CaCl2, 0.2 M NaCl, and 0.01% or 0.05% Brij-35 with substrate concentrations of 1 μM. The release of product was monitored by measuring fluorescence (excitation and emission wavelengths of 328 nm and 393 nm, respectively) with a Perkin Elmer Luminescence Spectrophotometer LS 50B connected to a temperature controlled water bath. All stock solutions of inhibitors were in dimethyl sulfoxide. […]

[2] = biological target: T2, MMP-1 (HFC; human fibroblast collagenase) (Homo sapiens, UniProt P03956); assay: Enzyme kinetic assay, inhibition of MMP-1; details: for Ki: read-out: Ki (value in parentheses), HFC MMP-1; for IC50: 25° C., pH 7.5, substrate 1 μM, read-out: IC50 (value without parentheses), HFC MMP-1
T2 sequence (P03956 100-469): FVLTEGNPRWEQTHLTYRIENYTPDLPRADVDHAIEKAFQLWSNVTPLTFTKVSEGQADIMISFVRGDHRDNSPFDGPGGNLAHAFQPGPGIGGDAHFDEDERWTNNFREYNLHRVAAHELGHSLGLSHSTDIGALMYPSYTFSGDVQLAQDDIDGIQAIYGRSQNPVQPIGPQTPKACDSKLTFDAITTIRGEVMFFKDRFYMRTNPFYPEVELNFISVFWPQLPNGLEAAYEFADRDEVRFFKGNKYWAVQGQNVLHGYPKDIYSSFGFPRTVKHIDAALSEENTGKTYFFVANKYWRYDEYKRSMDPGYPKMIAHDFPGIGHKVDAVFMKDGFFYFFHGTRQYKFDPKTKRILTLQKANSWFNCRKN
Excerpt: as §1, §2, §3

[3] = biological target: T3, MMP-7 (MLN; human matrilysin) (Homo sapiens, UniProt P09237); assay: Enzyme kinetic assay, inhibition of MMP-7; details: for IC50: 25° C., pH 7.5, substrate 1 μM, read-out: IC50 (value without parentheses), MLN MMP-7; for Ki: read-out: Ki (value in parentheses), MLN MMP-7
T3 sequence (P09237 95-267): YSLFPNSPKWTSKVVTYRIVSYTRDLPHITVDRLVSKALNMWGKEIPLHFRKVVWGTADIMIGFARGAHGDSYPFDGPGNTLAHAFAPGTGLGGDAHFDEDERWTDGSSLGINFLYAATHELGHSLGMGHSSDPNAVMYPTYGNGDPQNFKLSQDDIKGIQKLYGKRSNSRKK
Excerpt: as §1, §2, §3

Row | Ki [1] | Ki [2] | IC50 [3] | IC50 [2] | Ki [3] | SMILES
1 | 0.032 µM | 4.1 µM | > 25 µM | – | – | NC(=O)N1C[C@H](NS(=O)(=O)c2ccc(Oc3ccccc3)cc2)[C@@H](S)C1 (racemic) [Example 1, (±)-N-Carbamoyl-trans-3-(4-phenoxybenzenesulfonamido)-4-mercaptopyrrolidine]
2 | 0.028 µM | – | > 25 µM | ~25 µM | – | O=S(=O)(N[C@H]1CNC[C@@H]1S)c1ccc(Oc2ccccc2)cc1 (racemic) [Example 3, (±)-trans-3-(4-Phenoxybenzenesulfonamido)-4-mercaptopyrrolidine Hydrochloride]
3 | 0.019 µM | 0.85 µM | > 25 µM | – | – | CN([C@H]1CN(C(N)=O)C[C@@H]1S)S(=O)(=O)c1ccc(Oc2ccccc2)cc1 (racemic) [Example 4, (±)-N-Carbamoyl-trans-3-(N-methyl-4-phenoxybenzenesulfonamido)-4-mercaptopyrrolidine]
4 | 0.004 µM | – | – | > 3 µM | 4 µM | NCCCCCC(=O)N1C[C@H](NS(=O)(=O)c2ccc(Oc3ccccc3)cc2)[C@@H](S)C1 (racemic) [Example 7, (±)-N-(6-Aminohexanoyl)-trans-3-(4-phenoxybenzene-sulfonamido)-4-mercaptopyrrolidine Hydrochloride]
5 | 0.003 µM | – | – | > 6 µM | 3 µM | CC(=O)NCCCCCC(=O)N1C[C@H](NS(=O)(=O)c2ccc(Oc3ccccc3)cc2)[C@@H](S)C1 (racemic) [Example 8, (±)-N-(6-Acetamidohexanoyl)-trans-3-(4-phenoxy-benzenesulfonamido)-4-mercaptopyrrolidine]

Continued, molecule first:

Row | SMILES | Ki [1] | Ki [2] | IC50 [3] | IC50 [2] | Ki [3]
6 | O=C(NCCN1C(=O)c2ccccc2C1=O)N1C[C@H](NS(=O)(=O)c2ccc(Oc3ccccc3)cc2)[C@@H](S)C1 (racemic) [Example 2, (±)-N-(2-Phthalimidoethylaminocarbonyl)-trans-3-(4-phenoxybenzenesulfonamido)-4-mercaptopyrrolidine] | 0.041 µM | 2.8 µM | > 12.5 µM | – | –
7 | O=C(OCc1ccccc1)N1C[C@H](NS(=O)(=O)c2ccc(Oc3ccccc3)cc2)[C@@H](S)C1 (racemic) [Example 5, (±)-N-(Benzyloxycarbonyl)-trans-3-(4-phenoxybenzenesulfonamido)-4-mercaptopyrrolidine] | 0.072 µM | – | > 50 µM | > 12.5 µM | –
8 | O=C(OCc1ccccc1)N1C[C@H](NS(=O)(=O)c2ccc(-c3ccccc3)cc2)[C@@H](S)C1 (racemic) [Example 6, (±)-N-(Benzyloxycarbonyl)-trans-3-(4-phenylbenzenesulfonamido)-4-mercaptopyrrolidine] | 0.65 µM | – | > 12.5 µM | > 130 µM | –
9 | CC(=O)NCCCCCC(=O)N1C[C@H](NS(=O)(=O)c2ccc(-c3ccccc3)cc2)[C@@H](S)C1 (racemic) [Example 9, (±)-N-(6-Acetamidohexanoyl)-trans-3-(4-phenylbenzene-sulfonamido)-4-mercaptopyrrolidine] | 0.27 µM | – | – | > 6 µM | 2 µM
